Results on six compounds are retold here after US20060189699A1, “Antimicrobial trinervitane derivatives” (Commonwealth Scientific and Industrial Researh Org, priority 2003, published 2006).

The subject of test [1] is Bacillus subtilis (ATCC Strain 6633). The test can be described thus: modified agar bioassay for weak antimicrobial activity (clear zone). In kind it is cell-based. The settings on record: for level of antimicrobial activity relative to trinervitadienes previously isolated from N. triodiae: screening assays, qualitative, potency not determined quantitatively. On the procedure: Extracts of the worker and soldier castes of the nasute termite species Nasutitermes exitiosus (Hill) (Isoptera:Termitidae) were screened against Bacillus subtilis (ATCC Strain 6633) at a concentration of 4.0 mg/ml in a bioassay. […] The only difference between the assay used in the current work and that described previously (WO 01/90035) is that in the current case the density of bacterial cells in the Luria-Bertani agar medium was ten times lower than that described in the earlier specification.
Twelve mL of a 70% methanol extract of N. exitiosus soldiers (containing 86 mg of solute) was fractionated by reverse-phase HPLC using a semi-preparative column at a flow rate of 4 ml/min and a gradient from water containing 0.05% (v/v) trifluroacetic acid to 100% acetonitrile over 20 minutes and then 100% acetonitrile for a further 15 minutes. The UV absorbance of the eluant was monitored at 230 nm. Fractions were collected over 35 minutes. Corresponding fractions were pooled across replicate separation runs and the pooled fractions were evaporated to dryness under nitrogen. Residues of the fractions were redissolved in HPLC grade water (fractions from 1-8 minutes), 70% aqueous methanol (9-15 minutes), or methanol (16-35 minutes).

Test [2] concerns Bacillus subtilis. The settings on record: WO 01/90035, as compound 9; cited from earlier work.
Where [3] appears, read: isolated HPLC sub-fractions / purified compounds.
Where [4] appears, read: purified components of fraction F2, modified antimicrobial assay.

“Also recorded” adds a separate entry of the source. Like-named read-outs stand apart in the source and are kept apart here.

As to `C=C1/C2=C\C[C@@H](C)CCC/C(C)=C3/CC[C@@](C)([C@H]13)[C@@H](O)[C@@H]2O` [R, 1(14),7(8),15(17)-trinervitatriene-2β,3α-diol], the “antimicrobial / biological activity” value in test [1] (setting [3]) is reported as “biologically active”. Further, the clear zone diameter in test [1] (setting [4]) amounted to 5 mm. Besides, the “level of antimicrobial activity relative to trinervitadienes previously isolated from N. triodiae” value in test [1] is reported as “qualitatively similar levels of antimicrobial activity”.

Take `C/C1=C/CC[C@H](C)CCC2C(C)[C@@H]3C1CC[C@]3(C)[C@@H](O)[C@@H]2O` (stereo partly drawn) [S, 1(15),8(9)-trinervitadiene-2β,3α-diol]: the “antimicrobial / biological activity” value in test [1] (setting [3]) is listed as “biologically active; also recorded: confirmed”. Moreover, the “antimicrobial activity shown in the earlier patent specification” value in test [2] was “antimicrobial activity”.

For 1(15),8(9)-trinervitadiene-3α-ol-2-one, the “antimicrobial / biological activity” value in test [1] (setting [3]) is reported as “biologically active; also recorded: antimicrobial compound; also recorded: confirmed”. Moreover, the “level of antimicrobial activity relative to trinervitadienes previously isolated from N. triodiae” value in test [1] is given as “qualitatively similar levels of antimicrobial activity”.

Take `C=C1/C2=C\C[C@@H](C)CCCC(=C)[C@@H]3CC[C@@](C)([C@H]13)[C@@H](O)[C@@H]2O` [Q, 1(14),8(19),15(17)-trinervitatriene-2β,3α-diol]: the “antimicrobial / biological activity” value in test [1] (setting [3]) was “biologically active”. The clear zone diameter in test [1] (setting [4]) stood at 4 mm. In test [1], the “level of antimicrobial activity relative to trinervitadienes previously isolated from N. triodiae” value is listed as “qualitatively similar levels of antimicrobial activity”.

Turning to `C=C1/C2=C\C[C@@H](C)C/C=C/C(=C)[C@@H]3CC[C@@](C)([C@H]13)[C@@H](O)[C@@H]2O` [P, 9E-1(14),8(19),9(10),15(17)-trinervitatetraene-2β,3α-diol], in test [1] (pooled reverse-phase HPLC fractions of soldier extract, quantity corresponding to 20 μL of crude extract), the clear zone diameter is recorded as 4 mm. The “level of antimicrobial activity relative to trinervitadienes previously isolated from N. triodiae” value in test [1] is “qualitatively similar levels of antimicrobial activity”.

For the compound “1(15),8(19)-trinervitadiene-2β,3α,9α-triol 2,3,9-triacetate [U]”, in test [1], the “antimicrobial / biological activity” value was “biologically active; also recorded: antimicrobial activity; also recorded: confirmed” and the “level of antimicrobial activity relative to trinervitadienes previously isolated from N. triodiae” value is on record as “qualitatively similar levels of antimicrobial activity”.
